In patent US11827628B2, “Compositions and methods for inhibition of the JAK pathway” (Rigel Pharmaceuticals, Inc., priority 2005, dated 2023) one finds IC50 data, which are given here for 27 compounds.

The structures appear in SMILES notation.

This experiment deals with up-regulation of ICAM-1 (CD54) by IFNγ in U937 human monocytic cells. As to the kind of experiment: U937 IFNγ ICAM1 FACS Assay. Conditions: Homo sapiens, U-937, U937 cells stimulated with IFNγ, ICAM-1 expression by FACS; read-out: IC50, Example 44. In kind it is cell-based. The text has this:
The activity of the compounds of the invention may additionally be characterized by assaying the effect of the 2,4-substituted pyrimidinediamine compounds described herein on A549 lung epithelial cells and U937 cells. A549 lung epithelial cells and U937 cells up-regulate ICAM-1 (CD54) surface expression in response to a variety of different stimuli. Therefore, using ICAM-1 expression as readout, test compound effects on different signaling pathways can be assessed in the same cell type. Stimulation with IL-1β through the IL-1β receptor activates the TRAF6/NFκB pathway resulting in up-regulation of ICAM-1. IFNγ induces ICAM-1 up-regulation through activation of the JAK1/JAK2 pathway. The up-regulation of ICAM-1 can be quantified by flow cytometry across a compound dose curve and EC50, values are calculated.
U937 human monocytic cells up-regulate ICAM-1 (CD54) surface expression in response to a variety of different stimuli. Therefore, using ICAM-1 expression as readout, compound effects on different signaling pathways can be assessed in the same cell type. IFNγ up-regulates ICAM-1 through activation of the JAK/Stat pathway. In this example, the up-regulation of ICAM-1 by IFNγ was assessed.
The U937 human monocytic cell line was obtained from ATCC of Rockville Maryland, catalog number CRL-1593.2, and cultured in RPM1-1640 medium containing 10% (v/v) FCS. U937 cells were grown in 10% RPMI. The cells were then plated at a concentration of 100,000 cells per 160 μL in 96 well flat bottom plates. […] Then 4 μL of test compound was transferred to 76 μL of 10% RPMI resulting in a 10× solution (100 μM test compound, 5% DMSO). For control wells, 4 μL of DMSO was diluted into 76 μL 10% RPMI.
The assay was performed in duplicate with 8 points (8 3-fold dilution concentrations from […]) and with 4 wells of DMSO only (control wells) under stimulated conditions and 4 wells of DMSO only under unstimulated conditions.
The diluted compound plate was mixed 2× using a multimek (Beckman Coulter of Brea, California) and then 20 μL of the diluted compounds was transferred to the 96 well plate containing 160 μL of cells, which were then mixed again twice at low speeds. The cells and compounds were then pre-incubated for 30 minutes at 37° C. with 5% CO2.
The 10× stimulation mix was made by preparing a 100 ng/mL solution of human IFNγ in 10% RPMI. […] The cells were kept under conditions for stimulation for 18-24 hours at 37° C. with 5% CO2.
The cells were transferred to a 96 well round bottom plate for staining and then kept on ice for the duration of the staining procedure. Cells were spun down at 1000 rpm for 5 minutes at 4° C., following which the supernatant was removed. Following removal of the supernatant, 1 μL APC conjugated mouse anti-human ICAM-1 antibody was added per 100 μL FACS buffer. The cells were then incubated on ice in the dark for 30 minutes. Following incubation, […] of FACS buffer was added and the cells were centrifuged at 1000 rpm for 5 minutes at 4° C., following which the supernatant was removed. After removal of the supernatant, 200 μL of FACS buffer was added and the cells were resuspended. After suspension, the cells were centrifuged at 1000 rpm for 5 min at 4° C. Supernatant was then removed prior to resuspension of the cells in 150 μL FACS buffer.
Detection was performed using a BD LSR I System Flow Cytometer, purchased from BD Biosciences of San Jose, California The live cells were gated for live scatter and the geometric mean of ICAM-APC was measured (Becton-Dickinson CellQuest software version 3.3, Franklin Lakes, NJ). Both % live cells and ICAM-1 expression was analyzed. The assays for the test compounds were carried out in parallel with a control compound of known activity.
(In general: In flow cytometry, cells or beads pass a laser one at a time.)
A word on the IC50: it is the concentration at which inhibition is half-maximal. On to `COc1ccc(Nc2nc(Nc3cc(Cl)c(C)c(S(N)(=O)=O)c3)ncc2F)cc1Cl` [VI-13, N2-(3-Aminosulfonyl-5-chloro-4-methylphenyl)-N4-(3-chloro-4-methoxyphenyl)-5-fluoro-2,4-pyrimidinediamine], for which the IC50 amounted to 1390 nM. On to `COc1ccc(Nc2nc(Nc3cc(C)c(F)c(S(N)(=O)=O)c3)ncc2F)cc1Cl` [VI-15, N2-(3-Aminosulfonyl-4-fluoro-5-methylphenyl)-N4-(3-chloro-4-methoxyphenyl)-5-fluoro-2,4-pyrimidinediamine], for which the IC50 is 767 nM. As for `COc1ccc(Nc2nc(Nc3cc(C)c(Cl)c(S(N)(=O)=O)c3)ncc2F)cc1Cl` [VI-17, N2-(3-Aminosulfonyl-4-chloro-5-methylphenyl)-N4-(3-chloro-4-methoxyphenyl)-5-fluoro-2,4-pyrimidinediamine], the figure is 454 nM. Regarding `Cc1cc(Nc2ncc(F)c(Nc3ccc(OC(F)(F)F)c(Cl)c3)n2)cc(S(N)(=O)=O)c1Cl` [VI-18, N2-(3-Aminosulfonyl-4-chloro-5-methylphenyl)-N4-(3-chloro-4-trifluoromethoxyphenyl)-5-fluoro-2,4-pyrimidinediamine], the half-maximal inhibitory concentration (IC50) amounted to 6060 nM.

On to `COc1ccc(Nc2nc(Nc3cccc(S(N)(=O)=O)c3)ncc2Br)cc1Cl` [VI-26, N2-(3-aminosulfonylphenyl)-5-bromo-N4-(3-chloro-4-methoxyphenyl)-2,4-pyrimidinediamine], for which the 50% inhibitory concentration (IC50) was 257 nM. `CNC(=O)OCc1cccc(Nc2nc(Nc3ccc(C)c(S(N)(=O)=O)c3)ncc2F)c1` [VI-49, N2-(3-Aminosulfonyl-4-methylphenyl)-5-fluoro-N4-[3-(methylaminocarbonyloxymethyl)phenyl]-2,4-pyrimidinediamine]: the IC50 turned out to be 2100 nM.

For the compound `Cc1ccc(Nc2ncc(F)c(Nc3ccc(C(F)(F)F)cc3)n2)cc1S(N)(=O)=O` [VI-50, N2-(3-Aminosulfonyl-4-methylphenyl)-5-fluoro-N4-(4-trifluoromethylphenyl)-2,4-pyrimidinediamine], the half-inhibitory concentration (IC50) is 1880 nM. As for `NS(=O)(=O)c1cccc(Nc2ncc(F)c(Nc3ccc(C(F)(F)F)cc3)n2)c1` [VI-51, N2-(3-Aminosulfonylphenyl)-5-fluoro-N4-(4-trifluoromethylphenyl)-2,4-pyrimidinediamine], the figure is 2130 nM; as for `Cc1ccc(Nc2ncc(F)c(Nc3ccc(CO)cc3)n2)cc1S(N)(=O)=O` [VI-52, N2-(3-Aminosulfonyl-4-methylphenyl)-5-fluoro-N4-(4-hydroxymethylphenyl)-2,4-pyrimidinediamine], 1740 nM; as for `C#CCOc1ccc(Nc2nc(Nc3ccc(C)c(S(N)(=O)=O)c3)ncc2F)cc1` [VI-53, N2-(3-Aminosulfonyl-4-methylphenyl)-5-fluoro-N4-[4-(prop-2-ynyloxy)phenyl]-2,4-pyrimidinediamine], 565 nM.

Consider `C=Cc1ccc(Nc2nc(Nc3ccc(C)c(S(N)(=O)=O)c3)ncc2F)cc1` [VI-54, N2-(3-Aminosulfonyl-4-methylphenyl)-5-fluoro-N4-(4-vinylphenyl)-2,4-pyrimidinediamine], for which the IC50 turned out to be 1620 nM. As for `C#CCOc1ccc(Nc2nc(Nc3ccc(Cl)c(S(N)(=O)=O)c3)ncc2F)cc1` [VI-55, N2-(3-Aminosulfonyl-4-chlorophenyl)-5-fluoro-N4-[4-(prop-2-ynyloxy)phenyl]-2,4-pyrimidinediamine], the figure is 1370 nM. As for `C#CCOc1ccc(Nc2nc(Nc3ccc(C)c(S(N)(=O)=O)c3)ncc2F)cc1F` [VI-60, N2-(3-Aminosulfonyl-4-methylphenyl)-5-fluoro-N4-[3-fluoro-4-(prop-2-ynyloxy)phenyl]-2,4-pyrimidinediamine], the figure is 410 nM. As for `CC#CCOc1ccc(Nc2nc(Nc3ccc(C)c(S(N)(=O)=O)c3)ncc2F)cc1` [VI-61, N2-(3-Aminosulfonyl-4-methylphenyl)-N4-[4-(but-2-ynyloxy)phenyl]-5-fluoro-2,4-pyrimidinediamine], the figure is 367 nM; as for `C#CCOc1ccc(Nc2nc(Nc3ccc(C(C)C)c(S(N)(=O)=O)c3)ncc2F)cc1` [VI-63, N2-[3-Aminosulfonyl-4-(2-propyl)phenyl]-5-fluoro-N4-[4-(prop-2-ynyloxy)phenyl]-2,4-pyrimidinediamine], 1740 nM.

`C#CCNc1ccc(Nc2nc(Nc3ccc(C)c(S(N)(=O)=O)c3)ncc2F)cc1` [VI-65, N2-(3-Aminosulfonyl-4-methylphenyl)-5-fluoro-N4-[4-(prop-2-ynylamino)phenyl]-2,4-pyrimidinediamine]: the IC50 came to 964 nM. In the case of `C#CCOc1ccc(Nc2nc(Nc3ccc(C)c(S(=O)(=O)NC)c3)ncc2F)cc1` [VI-68, 5-Fluoro-N2-(4-methyl-3-methylaminosulfonylphenyl)-N4-[4-(prop-2-ynyloxy)phenyl]-2,4-pyrimidinediamine], the concentration for half-maximal inhibition (IC50) came out at 1810 nM. On to `C#CCOc1ccc(Nc2nc(Nc3ccc(N4CCN(C)CC4)c(S(N)(=O)=O)c3)ncc2F)cc1` [VI-70, N2-[3-Aminosulfonyl-4-(1-methylpiperazin-4-yl)phenyl]-5-fluoro-N4-[4-(prop-2-ynyloxy)phenyl]-2,4-pyrimidinediamine], for which the concentration for half-maximal inhibition (IC50) was determined as 657 nM. As for `C#CCOC(=O)NCc1ccc(Nc2nc(Nc3cccc(S(N)(=O)=O)c3)ncc2F)cc1` [VI-74, N2-(3-Aminosulfonylphenyl)-5-fluoro-N4-{4-[(prop-2-ynyloxy)carbonylaminomethyl]phenyl}-2,4-pyrimidinediamine], the figure is 3850 nM; as for `NS(=O)(=O)c1cccc(Nc2ncc(F)c(Nc3ccc(CCCF)cc3)n2)c1` [VI-83, N2-(3-Aminosulfonylphenyl)-5-fluoro-N4-[4-(3-fluoropropyl)phenyl]-2,4-pyrimidinediamine], 535 nM; as for `NS(=O)(=O)c1cccc(Nc2ncc(F)c(Nc3ccc(CCCO)cc3)n2)c1` [VI-86, N2-(3-Aminosulfonylphenyl)-5-fluoro-N4-[4-(3-hydroxypropyl)phenyl]-2,4-pyrimidinediamine], 487 nM.

Take `NS(=O)(=O)c1cccc(Nc2ncc(F)c(Nc3ccc(CCCCO)cc3)n2)c1` [VI-89, N2-(3-Aminosulfonylphenyl)-5-fluoro-N4-[4-(4-hydroxybutyl)phenyl]-2,4-pyrimidinediamine]: the half-maximal inhibitory concentration (IC50) was 2040 nM. As for `NS(=O)(=O)c1cccc(Nc2ncc(F)c(Nc3ccc(CCCCF)cc3)n2)c1` [VI-92, N2-(3-Aminosulfonylphenyl)-5-fluoro-N4-[4-(4-fluorobutyl)phenyl]-2,4-pyrimidinediamine], the figure is 1160 nM; as for `NS(=O)(=O)c1cc(Nc2ncc(F)c(Nc3ccc(O)cc3)n2)ccc1F` [VI-100, N2-(3-Aminosulfonyl-4-fluorophenyl)-5-fluoro-N4-(4-hydroxyphenyl)-2,4-pyrimidinediamine], 4900 nM. As for `Cc1ccc(Nc2ncc(F)c(Nc3ccc(O)cc3)n2)cc1S(N)(=O)=O` [VI-102, N2-(3-Aminosulfonyl-4-methylphenyl)-5-fluoro-N4-[4-hydroxyphenyl]-2,4-pyrimidinediamine], the figure is 2800 nM. As for `COc1ccc(Nc2nc(Nc3cccc(S(N)(=O)=O)c3)ncc2F)cc1Cl` [VI-107, N2-(3-Aminosulfonylphenyl)-5-fluoro-N4-(4-methoxy-3-chlorophenyl]-2,4-pyrimidinediamine], the figure is 856 nM; as for `NS(=O)(=O)c1cccc(Nc2ncc(F)c(Nc3ccc(Cl)c(Cl)c3)n2)c1` [VI-110, N2-(3-Aminosulfonylphenyl)-N4-(3,4-dichlorophenyl)-5-fluoro-2,4-pyrimidinediamine], 5460 nM.
